Test results: US20120107423A1, “Methods of Using Inhaled Nitric Oxide Gas for Treatment of Acute Respiratory Distress Syndrome” (INO Therapeutics LLC, priority 2010, published 2012)

Columns and labels:
[1] = at STP; cited from earlier work
[2] = system: patients with moderately severe acute lung injury (ALI) / ARDS survivors; test: Respiratory parameters during mechanical ventilation: cumulative exposure (AUC) over study gas administration; type: in vivo, human; conditions: for Duration of exposure: PaO2/FiO2 ratio: during study gas administration / length of mechanical ventilation
Protocol: Baseline oxygenation measures included PaO2, arterial partial pressure of CO2 (PaCO2), SpO2, FiO2, PEEP, PaO2/FiO2 ratio, […], tidal volume, and mean airway pressure. Respiratory parameters (FiO2, PEEP, and PaO2/FiO2 ratio) were recorded on case report forms every 12 hours during mechanical ventilation.
(§1) All between-group differences in PFT results were evaluated using the Wilcoxon rank sum test. Between-group differences in baseline clinical and demographic characteristics were assessed with the Fisher's exact test and the chi-square test for categorical variables and with the Wilcoxon rank sum test for continuous variables. Baseline oxygenation and respiratory/oxygenation parameters in the two groups were compared using Wilcoxon rank sum tests. The areas under the curve (AUCs) of FiO2, PEEP, and PaO2/FiO2 ratio were calculated using the trapezoidal rule. The null hypothesis that the respective AUCs were normally distributed was rejected employing the Shapiro-Wilk test. A Wilcoxon rank sum test was utilized to assess the differences in each median AUC between treatment groups. A p value <0.05 was considered significant.

[3] = system: patients with moderately severe Acute Lung Injury (ALI); test: Randomized, blinded, placebo-controlled 28-day study of low-dose (5 ppm) iNO, intent-to-treat analysis; type: in vivo, human
Protocol: (§2) A large-scale, randomized, blinded, placebo-controlled study was carried out in the Intensive Care Units (ICUs) of 46 US hospitals to evaluate the efficacy of low-dose (5 ppm) iNO in 385 patients with moderately severe Acute Lung Injury (ALI). The primary endpoint of this study was number of days alive and off assisted breathing.
(§3) Patients had moderately severe acute lung injury (ALI), defined by a modification of American-European Consensus Conference criteria (PaO2/inspired oxygen concentration [FiO2] ratio of ≦250 mm Hg), due to causes other than severe sepsis. Patients with evidence of non-pulmonary system failure at the time of randomization and sepsis-induced ARDS were excluded. Patients were also excluded if they had sustained hypotension requiring vasopressor support, hemodynamic profiles supporting severe sepsis, severe head injury, severe burns, or evidence of other significant organ system dysfunction at baseline.
(§4) Patients were randomly assigned to receive either inhaled placebo gas (nitrogen) or 5 ppm of iNO (INO Therapeutics Inc., Port Allen, La.). All patients, healthcare professionals, and investigators were blinded to the assigned treatment. Inhaled NO was administered via INOvent® delivery system (Datex-Ohmeda, Madison, Wis.) that blended treatment gas (nitrogen or NO at 100-ppm balance nitrogen) 1:20 with ventilator gases to achieve a target ppm value in the inspiratory limb of the ventilator.
(§5) All patients using the iNO delivery system received mechanical ventilatory support. Treatment continued with active or placebo gas until one of the following criteria were met: [1] end of trial (28 days); [2] death; or [3] adequate oxygenation (arterial oxygen saturation by pulse oximetry [SpO2]≧92% or PaO2 of ≧63 mm Hg) without treatment gas at ventilator settings of FiO2≦0.4 and positive end-expiratory pressure (PEEP) of ≦5 cm H2O. Decreases in treatment gas continued in 20% decrements (titrated down by 1 ppm for inhaled NO) every 30 minutes until either the treatment gas concentration reached 0% or oxygenation criteria were not satisfied. If oxygenation criteria were not met, treatment gas concentration was titrated up until they were again achieved. Increments of upward titration were determined by the clinician, based on degree of arterial desaturation.

[4] = system: patients with moderately severe Acute Lung Injury (ALI); test: Safety results, adverse events in the initial 28-day study period; type: in vivo, human; conditions: iNO 5 ppm
Protocol: as §2
Safety results for the initial 28-day study period have been reported and are summarized briefly here. A total of 630 adverse events (AEs) were reported for patients treated with iNO versus 666 events for those who received placebo. Respiratory system AEs occurred in 51% versus 61% of patients receiving iNO and placebo, respectively, primarily due to higher frequencies of pneumonia, pneumothorax, and apnea in the placebo group.

[5] = system: ARDS patients; conditions: cited from earlier work
[6] = system: experimental animals and ARDS patients; conditions: cited from earlier work
[7] = system: patients with moderately severe acute lung injury (ALI) / ARDS survivors; test: Pulmonary function tests at 6 months post-treatment in ARDS survivors (iNO 5 ppm vs placebo); type: in vivo, human
Protocol: as §2, §3, §4, §5
Pulmonary function testing (PFT) at 6 months post-treatment was required in both iNO- and placebo-treated patients as part of the original study design. PFTs included forced expiratory volume in 1 second (FEV1), FEV1% predicted, forced vital capacity (FVC), FVC % predicted, the FEV1/FVC ratio, FEV1/FVC ratio % predicted, forced expiratory flow (FEF) from 25% to 75% of FVC (FEF25-75%), FEF25-75%% predicted, functional residual capacity (FRC), FRC % predicted, total lung capacity (TLC), TLC % predicted, CO diffusion, and CO diffusion % predicted.
as §1
A total of 92 of the 302 survivors (30%) were capable of and participated in the 6-month follow-up pulmonary function analysis (iNO, n=51; placebo, n=41). The balance of surviving subjects was lost to follow-up for reasons unknown, and PFT data are not available. […]

[8] = experimental animals and ARDS patients

Which results are given for `[N]=O` [Inhaled NO, nitric oxide]?
Solubility in water [1]: about 2 mM; Duration of exposure: PaO2/FiO2 ratio ([2]; mean ± SD): 262 ± 407; Duration of exposure: PaO2/FiO2 ratio ([2]; mean ± SD, listed as iNO): 2637±1729; Duration of exposure: FiO2 ([2]; during study gas administration, mean ± SD, N = 51): 6.34 ± 4.5; Cumulative exposure to FiO2, PEEP and PaO2/FiO2 ratio, versus placebo ([2]; over the length of mechanical ventilation): less cumulative exposure to all three variables; Duration of exposure, total FiO2 ([2]; over the length of mechanical ventilation, mean ± SD): 6.3 ± 4.5 days; Aggregate per-patient changes from baseline in supplemental oxygen, PEEP, or PaO2/FiO2 ratio, versus placebo ([2]; through day 28 (FIG. 2a-c)): no significant differences between groups; Partial pressure of arterial oxygen (PaO2) ([3]; initial 24 hours of treatment, p<0.05, resolved by 48 hours): significant increase; Days alive and meeting oxygenation criteria for extubation, benefit versus control ([3]; intent-to-treat): no significant benefit; Mortality, benefit versus control (nitrogen gas) ([3]; intent-to-treat, 5 ppm iNO, 385 patients): no significant benefit; Days alive and off assisted breathing, benefit versus control ([3]; intent-to-treat, primary endpoint): no significant benefit; Patients with respiratory system AEs [4]: 51%; Total adverse events (AEs) reported [4]: 630 events; H2O2 production by polymorphonuclear leukocytes [5]: significantly decrease; IL-6 concentration in BAL fluid [5]: decreased; IL-8 concentration in BAL fluid [5]: decreased; β2-integrin CD11b/CD18 expression by polymorphonuclear leukocytes [5]: significantly decrease; Formation of platelet-leukocyte aggregates ([6]; correlated with NO-dependent inhibition of platelet P-selectin expression): significantly inhibiting; Pulmonary concentrations of interleukin (IL)-8 [6, 8]: significantly decreases; Pulmonary concentrations of neutrophils [6, 8]: significantly decreases; FRC, % predicted ([7]; mean): 93.98 % predicted; TLC ([7]; mean): 5.54 L; TLC, % predicted ([7]; mean): 93.33 % predicted; CO diffusion ([7]; mean (SD)): 18.25 (6.77) mL/min/mm Hg; CO diffusion, % predicted ([7]; mean (SD)): 71.02 (20.79) % predicted; FEF25/75%, % predicted ([7]; mean (SD)): 72.50 (27.71) % predicted; FEV1, % predicted ([7]; mean (SD)): 80.23 (21.21) % predicted; FEV1/FVC ([7]; mean (SD)): 77.45 (15.19) %; FEV1/FVC, % predicted ([7]; mean (SD)): 96.14 (13.79) % predicted; FRC ([7]; mean (SD)): 3.00 (0.94) L; FVC ([7]; mean (SD)): 3.36 (1.09) L; FVC, % predicted ([7]; mean (SD)): 83.78 (19.38) % predicted; FEV1 ([7]; mean (SD), iNO 5 ppm up to 28 days): 2.64 (0.91) L; FEV1, % predicted ([7]; mean (SD), listed as iNO): significantly greater; FEV1/FVC, % predicted ([7]; mean (SD), listed as iNO): significantly greater; FVC, % predicted ([7]; mean (SD), listed as iNO): significantly greater; TLC ([7]; mean, listed as iNO): significantly greater; TLC, % predicted ([7]; mean, listed as iNO): significantly greater
